System: Utrophin A promoter linked to a luciferase reporter gene
Experiment: Luciferase reporter assay (murine H2K cells)
Type: cell-based
Conditions: for activity at 10 µM: Mus musculus, H2K mdx, luciferase level relative to control, H2K/mdx/Utro A reporter cells, compound 10 μM final concentration, read-out: Activity; for Activity: luciferase reporter assay in murine H2K cells, classified relative to control
Description: 1. Luciferase Reporter Assay (Murine H2K Cells)
The cell line used for the screen is an immortalized mdx mouse H2K cell line that has been stably transfected with a plasmid containing […] fragment of the Utrophin A promoter including the first untranslated exon linked to a luciferase reporter gene. Under conditions of low temperature and interferon containing media, the cells remain as myoblasts. These are plated into 96 well plates and cultured in the presence of compound for three days. The level of luciferase is then determined by cell lysis and reading of the light output from the expressed luciferase gene utilising a plate luminometer.
H2K/mdx/Utro A reporter Cell Line Maintenance
The cells were grown at 33° C. in the presence of 10% CO2. To remove the myoblasts for platting, they were incubated with Trypsin EDTA until the monolayer started to detach.
The plates were then incubated at 33° C. in the presence of 10% CO2 for 24 hrs. Compounds were dosed by adding 10 μl of diluted compound to each well giving a final concentration of 10 μM. The plates were then incubated for a further 48 hrs. Cells were then lysed in situ following the manufacture's protocols (Promega Steady-Glo Luciferase Assay System (E2520). Then counted for 10 seconds using a plate luminometer (Victor1420).
Compounds for screening were stored at −20° C. as 10 mM stocks in 100% DMSO until required.
Biological activity as assessed using the luciferase reporter assay in murine H2K cells, and is classified as follows: […]

SMILES	activity at 10 µM [%]	Activity
CC(C)C(=O)Nc1ccc(-c2nc3cc(Cl)ccc3o2)cc1 [Example 318, N-(4-(5-chlorobenzo[d]oxazol-2-yl)phenyl)isobutyramide]	201 to 300	
CC(=O)Oc1ccc(C(=O)Nc2ccc(-c3nc4ccccc4[nH]3)cc2)cc1 [Example 655]		+++ (Between 301% and 400% relative to control)
Clc1ccc(-c2nc3cc(-c4ccc(N5CCOCC5)cc4)ccc3o2)cc1 [Example 291, 2-(4-chlorophenyl)-5-(4-morpholinophenyl)benzo[d]oxazole]	201 to 300	
CN(C)c1ccc(-c2nc3cc(NC(=O)c4ccncc4)ccc3o2)cc1 [Example 1, N-(2-(4-(dimethylamino)phenyl)benzo[d]oxazol-5-yl)isonicotinamide]	< 200	
CC(C)C(=O)Nc1ccc2ccn(C)c2c1 [Example 378, N-(1-methyl-1H-indol-6-yl)isobutyramide]	< 200	
Clc1ccc(-c2nc3cc(Br)ccc3o2)cc1 [Example 288, 5-bromo-2-(4-chlorophenyl)benzo[d]oxazole]	> 401	
CCN(CC)c1ccc(-c2nc3cc(NC(=O)c4ccncc4)ccc3o2)cc1 [Example 61, N-(2-(4-(diethylamino)phenyl)benzo[d]oxazol-5-yl)isonicotinamide]	< 200	
COc1ccc(-c2nc3cc(N)ccc3o2)cc1OC [Example 515]		++ (Between 201% and 300% relative to control)
CCN(CC)c1ccc(-c2nc3ccc(Cl)cc3o2)cc1 [Example 132, 4-(6-chlorobenzo[d]oxazol-2-yl)-N,N-diethylaniline]	> 401	
COc1ccc(-c2nc3ccccc3o2)cc1N [Example 619]		++++ (Above 401% relative to control)
CC(C)C(=O)Nc1ccc2oc(C3CCOCC3)nc2c1 [Example 349, N-(2-(tetrahydro-2H-pyran-4-yl)benzo[d]oxazol-5-yl)isobutyramide]	< 200	
CC(=O)Nc1cccc(-c2nc3ccccc3[nH]2)c1 [Example 503]		+ (Up to 200% relative to control)
Clc1ccc2oc(-c3ccncc3)nc2c1 [Example 330, 5-chloro-2-(pyridin-4-yl)benzo[d]oxazole]	< 200	
CCCC(=O)Nc1ccc2oc(-c3ccc(Cl)cc3)nc2c1 [Example 99, N-(2-(4-chlorophenyl)benzo[d]oxazol-5-yl)butyramide]	> 401	
CC(C)C(=O)Nc1ccc(-c2nc3c(ccc4ccccc43)o2)cc1 [Example 442, N-(4-(naphtho[1,2-d]oxazol-2-yl)phenyl)isobutyramide]	301 to 400	
CC(=O)Nc1ccc2oc(-c3ccc(C(F)(F)F)cc3)nc2c1 [Example 123, N-(2-(4-(trifluoromethyl)phenyl)benzo[d]oxazol-5-yl)acetamide]	201 to 300	
Nc1ccc2sc(-c3cccc(Cl)c3)nc2c1 [Example 283, 2-(3-chlorophenyl)benzo[d]thiazol-5-amine]	> 401	
Nc1ccc2oc(-c3ccccc3F)nc2c1 [Example 569]		+++ (Between 301% and 400% relative to control)
CCS(=O)(=O)c1ccc2oc(-c3ccc4occc4c3)nc2c1 [Example 445, 2-(benzofuran-5-yl)-5-(ethylsulfonyl)benzo[d]oxazole]	> 401	
Cc1cccc(NC(=O)c2sc3nc(C)cc(C)c3c2N)c1 [Example 650]		+++ (Between 301% and 400% relative to control)
Cn1c(CNc2ccc(Cl)cc2)nc2ccccc21 [Example 666]		++ (Between 201% and 300% relative to control)
Nc1ccc2oc(CCc3ccccc3)nc2c1 [Example 280, 2-phenethylbenzo[d]oxazol-5-amine]	> 401	
CC(C)C(=O)Nc1ccc2oc(-c3ccc4ccccc4c3)nc2c1 [Example 384, N-(2-(naphthalen-2-yl)benzo[d]oxazol-5-yl)isobutyramide]	301 to 400	
Cc1ccc(C(=O)Nc2ccc3oc(-c4ccccc4)nc3c2)cc1 [Example 24, 4-methyl-N-(2-phenylbenzo[d]oxazol-5-yl)benzamide]	< 200	
O=C(COc1ccc2c(c1)OCO2)Nc1nc2ccccc2s1 [Example 614]		+ (Up to 200% relative to control)
Cc1nc2ccc(NC(=O)NC(=O)c3ccccc3Cl)cc2o1 [Example 468]		+ (Up to 200% relative to control)
O=C(Nc1ccc2oc(-c3ccc(C(F)(F)F)cc3)nc2c1)c1ccncc1 [Example 122, N-(2-(4-(trifluoromethyl)phenyl)benzo[d]oxazol-5-yl)isonicotinamide]	< 200	

SMILES	activity at 10 µM [%]	Activity
CCCC(=O)Nc1ccc2sc(-c3ccc(C)cc3)nc2c1 [Example 216, N-(2-p-tolylbenzo[d]thiazol-5-yl)butyramide]	> 401	
CCCNC(=O)c1ccc2oc(-c3ccc(C)cc3)nc2c1 [Example 177, N-propyl-2-p-tolylbenzo[d]oxazole-5-carboxamide]	> 401	
O=C(Nc1ccc(-c2nc3ccc(Cl)cc3o2)cc1)c1cccs1 [Example 334, N-(4-(6-chlorobenzo[d]oxazol-2-yl)phenyl)thiophene-2-carboxamide]	< 200	
O=C(CCN1CCOCC1)Nc1ccc2oc(-c3ccccc3)nc2c1 [Example 285, 3-morpholino-N-(2-phenylbenzo[d]oxazol-5-yl)propanamide]	< 200	
O=C(Nc1nc2ccc(F)cc2s1)c1ccccc1Br [Example 629]		++++ (Above 401% relative to control)
Cc1ccc(-c2nc3ccccc3[nH]2)cc1NC(=O)C(F)(F)F [Example 568]		+++ (Between 301% and 400% relative to control)
CCN(CC)c1ccc(-c2nc3cc(NC(=O)c4ccc(Cl)cc4)ccc3o2)cc1 [Example 63, 4-chloro-N-(2-(4-(diethylamino)phenyl)benzo[d]oxazol-5-yl)benzamide]	< 200	
Nc1ccc2sc(-c3cccc(Cl)c3Cl)nc2c1 [Example 307, 2-(2,3-dichlorophenyl)benzo[d]thiazol-5-amine]	301 to 400	
Cc1c(N)cccc1-c1nc2cc(Cl)ccc2o1 [Example 566]		+ (Up to 200% relative to control)
O=C(CC(F)(F)F)Nc1ccc2oc(-c3ccc(Cl)c(Cl)c3)nc2c1 [Example 352, N-(2-(3,4-dichlorophenyl)benzo[d]oxazol-5-yl)-3,3,3-trifluoropropanamide]	> 401	
COc1ccc(C(=O)Nc2ccc3oc(-c4ccc(Cl)cc4)nc3c2)cc1 [Example 91, N-(2-(4-chlorophenyl)benzo[d]oxazol-5-yl)-4-methoxybenzamide]	< 200	
CCS(=O)(=O)c1ccc2oc(-c3ccc4c(c3)OC(F)(F)O4)nc2c1 [Example 438, 2-(2,2-difluorobenzo[d][1,3]dioxol-5-yl)-5-(ethylsulfonyl)benzo[d]oxazole]	< 200	
CCCC(=O)Nc1cnc2oc(-c3ccccc3)nc2c1 [Example 170, N-(2-phenyloxazolo[5,4-b]pyridin-6-yl)butyramide]	< 200	
CC(=O)Nc1cccc(-c2ccc3oc(-c4ccc(Cl)cc4)nc3c2)c1 [Example 575]		++++ (Above 401% relative to control)
CC(=O)Nc1ccc(-c2ccc3[nH]c(-c4ccc(Cl)cc4)cc3c2)cc1 [Example 367, N-(4-(2-(4-chlorophenyl)-1H-indol-5-yl)phenyl)acetamide]	< 200	
Clc1cccc(-c2nc3ccccc3[nH]2)c1 [Example 514]		+ (Up to 200% relative to control)
Cc1ccc(-c2nc3ccc(N)cc3o2)cc1 [Example 237, 2-p-tolylbenzo[d]oxazol-6-amine]	> 401	
CC(C)S(=O)(=O)c1ccc2oc(-c3ccc(Cl)c(Cl)c3)nc2c1 [Example 434, 2-(3,4-dichlorophenyl)-5-(isopropylsulfonyl)benzo[d]oxazole]	301 to 400	
O=C(Nc1ccc2oc(-c3ccc(Cl)cc3)nc2c1)c1ccc(F)cc1 [Example 96, N-(2-(4-chlorophenyl)benzo[d]oxazol-5-yl)-4-fluorobenzamide]	< 200	
COc1ccc(C(=O)Nc2ccc3oc(-c4ccc(OC)cc4)nc3c2)cc1 [Example 83, 4-methoxy-N-(2-(4-methoxyphenyl)benzo[d]oxazol-5-yl)benzamide]	< 200	
Cc1cc(-c2nc3ccccc3o2)ccc1[N+](=O)[O-] [Example 607]		++++ (Above 401% relative to control)
Cc1cc2nc(-c3ccc(Cl)cc3Cl)oc2cc1C [Example 224, 2-(2,4-dichlorophenyl)-5,6-dimethylbenzo[d]oxazole]	> 401	
c1ccc(CNc2ccc3oc(-c4ccccc4)nc3c2)cc1 [Example 156, N-benzyl-2-phenylbenzo[d]oxazol-5-amine]	301 to 400	
CCn1c(C)nc2cc(C(=O)Nc3ccccc3)ccc21 [Example 615]		++++ (Above 401% relative to control)
Cc1ccc(-c2nc3cc(N)ccc3o2)cc1 [Example 18, 2-p-tolylbenzo[d]oxazol-5-amine]	< 200	
O=C(Nc1ccc2oc(-c3ccc(Cl)cc3)nc2c1)C1CCC1 [Example 266, N-(2-(4-chlorophenyl)benzo[d]oxazol-5-yl)cyclobutanecarboxamide]	301 to 400	
